Measurements: PMC10289903 (Investigational New Drugs, 2023)
Read-outs that look alike come from different tables or passages of the source.

Tested on: patients with locally advanced or metastatic solid tumors
Description: This was a Phase Ib, multicenter, open-label, dose-finding clinical trial (NCT02610075). […] Three types of treatment schedules were investigated: cohorts bid 1, bid 2, qd 1.1, qd 2.1 and qd 3.1 received bid or qd treatment on a 5/9 schedule (5 days on treatment, followed by 9 days off) on a 14-day cycle. Cohorts qd 1.2, qd 2.2, and qd 3.2 received treatment on a 5/2 schedule (5 days on followed by 2 days off for 2 of 3 weeks) in a 21-day cycle. Cohorts qd 2.3 and qd 3.3 received treatment on a weekly 5/2 schedule in a 21-day cycle (Table 1). The highest dose level(s) at which less than one-third of evaluable patients (none of 3 patients or 1 of 6 patients) experienced a dose-limiting toxicity (DLT) was declared the MTD.
The per protocol analysis set was defined as a subset of the full analysis set, excluding subjects having an important protocol deviation, to be used for analyses of efficacy endpoints if appropriate.

[1] = qd 3.3: 300 mg 5/2 weekly (n=2)

## C=CCn1c(=O)c2cnc(Nc3ccc(N4CCN(C)CC4)cc3)nc2n1-c1cccc(C(C)(C)O)n1 [adavosertib, Adavosertib]
Qd 3.1: 300 mg qd 5/9 (n=4)
  Dehydration (treatment-emergent AE): 1 (25.0) n (%)
  Dehydration (treatment-related AE): 0 n (%)
  Diarrhea (treatment-emergent AE): 0 n (%)
  Diarrhea (treatment-related AE): 0 n (%)
  Dizziness (treatment-emergent AE): 2 (50.0) n (%)
  Dyspepsia (treatment-emergent AE): 0 n (%)
  Dyspepsia (treatment-related AE): 0 n (%)
  Dyspnea (treatment-emergent AE): 2 (50.0) n (%)
  Edema peripheral (treatment-emergent AE): 2 (50.0) n (%)
  Fall (treatment-emergent AE): 0 n (%)
  Fatigue (treatment-emergent AE): 2 (50.0) n (%)
  Fatigue (treatment-related AE): 1 (25.0) n (%)
  Headache (treatment-emergent AE): 0 n (%)
  Hypokalemia (treatment-emergent AE): 0 n (%)
  Insomnia (treatment-emergent AE): 1 (25.0) n (%)
  Muscle spasms (treatment-emergent AE): 1 (25.0) n (%)
  Myalgia (treatment-emergent AE): 1 (25.0) n (%)
  Myalgia (treatment-related AE): 1 (25.0) n (%)
  Nausea (treatment-emergent AE): 2 (50.0) n (%)
  Nausea (treatment-related AE): 2 (50.0) n (%)
  Neutropenia (treatment-emergent AE): 0 n (%)
  Neutropenia (treatment-related AE): 0 n (%)
  Pneumonia (treatment-emergent AE): 0 n (%)
  Pyrexia (treatment-emergent AE): 0 n (%)
  Rash (treatment-emergent AE): 0 n (%)
  Thrombocytopenia (treatment-emergent AE): 1 (25.0) n (%)
  Thrombocytopenia (treatment-related AE): 1 (25.0) n (%)
  Urinary tract infection (treatment-emergent AE): 0 n (%)
  Vomiting (treatment-emergent AE): 0 n (%)
  Vomiting (treatment-related AE): 0 n (%)
Qd 3.2: 300 mg qd 5/2 (n=16)
  Abdominal pain (treatment-emergent AE): 4 (25.0) n (%)
  Abdominal pain (treatment-related AE): 2 (12.5) n (%)
  Alanine aminotransferase increased (treatment-emergent AE): 0 n (%)
  Anemia (treatment-emergent AE): 8 (50.0) n (%)
  Anemia (treatment-related AE): 6 (37.5) n (%)
  Any AE (treatment-emergent): 16 (100.0) n (%)
  Any grade ≥ 3 AE: 12 (75.0) n (%)
  Any treatment-related AE: 16 (100.0) n (%)
  Any treatment-related grade ≥ 3 AE: 8 (50.0) n (%)
  Asthenia (treatment-emergent AE): 4 (25.0) n (%)
  Asthenia (treatment-related AE): 2 (12.5) n (%)
  Back pain (treatment-emergent AE): 4 (25.0) n (%)
  Constipation (treatment-emergent AE): 4 (25.0) n (%)
  Constipation (treatment-related AE): 0 n (%)
  Cough (treatment-emergent AE): 2 (12.5) n (%)
  Decreased appetite (treatment-emergent AE): 5 (31.3) n (%)
  Decreased appetite (treatment-related AE): 4 (25.0) n (%)
  Dehydration (treatment-emergent AE): 7 (43.8) n (%)
  Dehydration (treatment-related AE): 1 (6.3) n (%)
  Diarrhea (treatment-emergent AE): 9 (56.3) n (%)
  Diarrhea (treatment-related AE): 9 (56.3) n (%)
  Dizziness (treatment-emergent AE): 4 (25.0) n (%)
  Dyspepsia (treatment-emergent AE): 2 (12.5) n (%)
  Dyspepsia (treatment-related AE): 2 (12.5) n (%)
  Dyspnea (treatment-emergent AE): 3 (18.8) n (%)
  Edema peripheral (treatment-emergent AE): 4 (25.0) n (%)
  Fall (treatment-emergent AE): 3 (18.8) n (%)
  Fatigue (treatment-emergent AE): 9 (56.3) n (%)
  Fatigue (treatment-related AE): 8 (50.0) n (%)
  Headache (treatment-emergent AE): 1 (6.3) n (%)
  Hypokalemia (treatment-emergent AE): 4 (25.0) n (%)
  Insomnia (treatment-emergent AE): 0 n (%)
  Muscle spasms (treatment-emergent AE): 1 (6.3) n (%)
  Myalgia (treatment-emergent AE): 3 (18.8) n (%)
  Myalgia (treatment-related AE): 1 (6.3) n (%)
  Nausea (treatment-emergent AE): 9 (56.3) n (%)
  Nausea (treatment-related AE): 7 (43.8) n (%)
  Neutropenia (treatment-emergent AE): 4 (25.0) n (%)
  Neutropenia (treatment-related AE): 4 (25.0) n (%)
  Pneumonia (treatment-emergent AE): 4 (25.0) n (%)
  Pyrexia (treatment-emergent AE): 3 (18.8) n (%)
  Rash (treatment-emergent AE): 2 (12.5) n (%)
  Thrombocytopenia (treatment-emergent AE): 3 (18.8) n (%)
  Thrombocytopenia (treatment-related AE): 3 (18.8) n (%)
  Urinary tract infection (treatment-emergent AE): 3 (18.8) n (%)
  Vomiting (treatment-emergent AE): 5 (31.3) n (%)
  Vomiting (treatment-related AE): 4 (25.0) n (%)
[1]
  Abdominal pain (treatment-emergent AE): 1 (50.0) n (%)
  Abdominal pain (treatment-related AE): 1 (50.0) n (%)
  Alanine aminotransferase increased (treatment-emergent AE): 0 n (%)
  Anemia (treatment-emergent AE): 0 n (%)
  Anemia (treatment-related AE): 0 n (%)
  Any AE (treatment-emergent): 2 (100.0) n (%)
  Any grade ≥ 3 AE: 1 (50.0) n (%)
  Any treatment-related AE: 2 (100.0) n (%)
  Any treatment-related grade ≥ 3 AE: 1 (50.0) n (%)
  Asthenia (treatment-emergent AE): 0 n (%)
  Asthenia (treatment-related AE): 0 n (%)
  Back pain (treatment-emergent AE): 0 n (%)
  Constipation (treatment-emergent AE): 0 n (%)
  Constipation (treatment-related AE): 0 n (%)
  Cough (treatment-emergent AE): 0 n (%)
  Decreased appetite (treatment-emergent AE): 0 n (%)
  Decreased appetite (treatment-related AE): 0 n (%)
  Dehydration (treatment-emergent AE): 0 n (%)
  Dehydration (treatment-related AE): 0 n (%)
  Diarrhea (treatment-emergent AE): 2 (100.0) n (%)
  Diarrhea (treatment-related AE): 2 (100.0) n (%)
  Dizziness (treatment-emergent AE): 1 (50.0) n (%)
  Dyspepsia (treatment-emergent AE): 0 n (%)
  Dyspepsia (treatment-related AE): 0 n (%)
  Dyspnea (treatment-emergent AE): 0 n (%)
  Edema peripheral (treatment-emergent AE): 0 n (%)
  Fall (treatment-emergent AE): 0 n (%)
  Fatigue (treatment-emergent AE): 0 n (%)
  Fatigue (treatment-related AE): 0 n (%)
  Headache (treatment-emergent AE): 0 n (%)
  Hypokalemia (treatment-emergent AE): 1 (50.0) n (%)
  Insomnia (treatment-emergent AE): 0 n (%)
  Muscle spasms (treatment-emergent AE): 0 n (%)
  Myalgia (treatment-emergent AE): 1 (50.0) n (%)
  Myalgia (treatment-related AE): 0 n (%)
  Nausea (treatment-emergent AE): 2 (100.0) n (%)
  Nausea (treatment-related AE): 2 (100) n (%)
  Neutropenia (treatment-emergent AE): 1 (50.0) n (%)
  Neutropenia (treatment-related AE): 1 (50.0) n (%)
